The values below are quoted from earlier work in patent US10689462B2, “Therapeutic and imaging compositions and uses thereof” (priority 2013, dated 2020).

For series [1] the following is noted: room temperature.
For series [2] the following is noted: within 24 h.
The subject of the next series is npc1^−/− mice. The note with it: subcutaneous injection, 4.0 mg/kg of body weight.

Where only a bound is given, the exact number is not on record here.

As for hydroxypropyl-β-cyclodextrin [HP-β-CD], the Solubility in water in series [1] is 650 mg/mL. In series [2], the “Fraction cleared from the bloodstream” value is given as above 90%. Besides, the “Effect on survival, hepatopathology and neuropathology” value with npc1^−/− mice was “improvement in their survival, hepatopathology, and neuropathology”.
